Values after ≈ are worked out from the molar mass of the structure shown.
Tests used:
Assay type in all cases: cell-based
PANC1-CSC = assay: MTS cell viability assay, PANC1-CSC; conditions: Table 6, tumor stem cell, 72 hours; read-out: IC50 against PANC1-CSC
Experimental: (§1) Primary viability screening: (1) the synthesized compounds 3a to 13d were respectively dissolved in DMSO to prepare a 40 μg/mL cannabicyclol and cannabicyclol derivative solutions.
(§2) (2) A control group: a 200 μL DMSO solvent.
(§3) (3) The solutions of compounds 3a to 13d were diluted in a twofold gradient to obtain cannabicyclol and cannabicyclol derivative solutions at concentrations of 40 μg/mL, 20 μg/mL, 10 μg/mL, 5 μg/mL, 2.5 μg/mL, 1.25 μg/mL, and 0.625 μg/mL, and 0.3125 μg/mL, respectively.
(§4) (4) Three glioblastoma stem cells (GSC-3, GSC-12, and GSC-18), three pancreatic cancer cell-derived stem cells (PANC-1-CSC, BXPC-3-CSC, and ASPC1-CSC), three liver cancer cell-derived stem cells (HepG2-CSC, MHCC97H-CSC, and SMMC7721-CSC), HEK-293T cells, 16 tumor cells (U251, U87, T98G, PANC1, BXPC3, ASPC1, HepG2, MHCC97H, SMMC7721, PC3, SKOV3, MDA-MB231, A549, HCT116, HEC-1B, MKN28), and differentiated glioblastoma stem cells (GSC-3diff and GSC-12diff) derived from GSC-3 and GSC-12 (all of the cells were provided by the Laboratory of Tumor Animal Model Preparation and Application Research, West China Hospital, Sichuan University) were inoculated into a 96-well plate at a concentration of 2×10^4 cells/well, and 100 μL of culture medium was then added to each well; […]
(§5) (10) The absorbance value at 490 nm was measured on an enzyme labeling apparatus, and the IC50 value was calculated.

HCT116 = assay: MTS cell viability assay, HCT116; conditions: Homo sapiens, HCT-116; Table 7, 72 hours; read-out: IC50 against HCT116
Experimental: as §1, §2, §3, §4, §5

HepG2-CSC = assay: MTS cell viability assay, HepG2-CSC; conditions: Table 6, tumor stem cell, 72 hours; read-out: IC50 against HepG2-CSC
Experimental: as §1, §2, §3, §4, §5

T98G = assay: MTS cell viability assay, T98G; conditions: Homo sapiens, Table 7, 72 hours, read-out: IC50 against T98G
Experimental: as §1, §2, §3, §4, §5

PC3 = assay: MTS cell viability assay, PC3; conditions: Homo sapiens, PC-3; Table 7, 72 hours; read-out: IC50 against PC3
Experimental: as §1, §2, §3, §4, §5

U251 = assay: MTS cell viability assay, U251
Experimental: as §1, §2, §3
(4) Three glioblastoma stem cells (GSC-3, GSC-12, and GSC-18), three pancreatic cancer cell-derived stem cells (PANC-1-CSC, BXPC-3-CSC, and ASPC1-CSC), three liver cancer cell-derived stem cells (HepG2-CSC, MHCC97H-CSC, and SMMC7721-CSC), HEK-293T cells, 16 tumor cells (U251, U87, T98G, PANC1, BXPC3, ASPC1, HepG2, MHCC97H, SMMC7721, PC3, SKOV3, MDA-MB231, A549, HCT116, HEC-1B, MKN28), and differentiated glioblastoma stem cells (GSC-3diff and GSC-12diff) derived from GSC-3 and GSC-12 (all of the cells were provided by the Laboratory of Tumor Animal Model Preparation and Application Research, West China Hospital, Sichuan University) were inoculated into a 96-well plate at a concentration of 2×10^4 cells/well, and 100 μL of culture medium was then added to each well;
(5) 2) HEK-293T, GSC-3diff, GSC-12diff, and the 16 tumor cells were added with DMEM, 10% FBS, and 1% double antibody culture medium. Cancer stem cells (CSCs) were added with serum-free stem cell medium consisting of DMEM/F12, EGF (20 ng/mL), bFGF (20 ng/mL), B27 (1×), and 1% double antibody culture medium.
(6) Inoculated cells were put into a cell culture incubator for 24 hours, and after the cells were well adhered to the wall, the culture medium in the 96-well plate was discarded.
(7) 200 μL cannabicyclol and cannabicyclol derivatives solutions at different concentrations were added to the cultured cells.
(8) The experiment was set up with 3 replicates.
(9) The 96-well plate was placed in a cell culture incubator, and incubation was continued at 37° C. and 5% CO2 for 72 hours. Then, 100 μL of cannabicyclol and cannabicyclol derivative solution per well was discarded (100 μL of DMSO solvent was discarded for the control group), and 20 μL of LMTS (CellTiter AQueous Non-Radioactive Cell Proliferation Assay, #G3581) was mixed and continued to be placed in the cell incubator for 2 hours of incubation.
as §5

HEC18 = assay: MTS cell viability assay, HEC18; conditions: Table 7, 72 hours; read-out: IC50 against HEC18
Experimental: as §1, §2, §3, §4, §5

MKN28 = assay: MTS cell viability assay, MKN28; conditions: Homo sapiens, MKN-28; Table 7, 72 hours; read-out: IC50 against MKN28
Experimental: as §1, §2, §3, §4, §5

MHCC97H-CSC = assay: MTS cell viability assay, MHCC97H-CSC; conditions: Table 6, tumor stem cell, 72 hours; read-out: IC50 against MHCC97H-CSC
Experimental: as §1, §2, §3, §4, §5

[1] = tested on: glioblastoma cell line U251; assay: Soft agar colony (clone) formation, U251; conditions: crystal violet, FIG. 4, compound 3a 0, 5 and 5 [sic] μg/mL
Experimental: […] of low-melting-point agarose was dissolved in 12.5 mL of ddH2O to prepare a 3.2% low-melting-point agarose gel. The low-melting-point agarose gel was sterilized by autoclaving at 121° C. and 0.12 MPa for 20 minutes. After sterilization, the low-melting-point agarose gel was maintained at 60° C. in a drying oven for further use.
1.75 mL of 3.2% sterile low-melting-point agarose gel was taken, 5.25 mL of the corresponding complete medium was added, and the two were mixed thoroughly using a pipette to prepare a base gel at a concentration of 0.8%.
1 mL of the base gel was added to each well of a 6-well plate, ensuring that the base gel evenly covered the bottom of each well. The plate was placed at 4° C. for 5 minutes to allow the gel to solidify. After the gel had fully solidified, the plate was warmed at 37° C. for 5 minutes.
6 cells/cell lines (U251, SMMC7721, GSC-3, GSC-12, SMMC7721-CSC, and HepG2-CSC) were individually digested with 1× trypsin for 3 minutes. The corresponding complete culture medium (same as in the application example 1) was added to terminate the digestion. Cells were centrifuged at 1000 rpm for 3 minutes, and the cells were collected and counted. A total of 5×10^3 cells were added to each well, each group was set up with three replicates. […]

Compound: CCCCCc1cc(O)c2c(c1)OC1(C)CCC3C1C2C3(C)C (centres unmarked) [Compound 3a, cannabicyclol]
- IC50 (PANC1-CSC): 13 µg/mL (≈ 41.3 µM)
- IC50 (HCT116): > 40 µg/mL
- IC50 (HepG2-CSC): 2.37 µg/mL (≈ 7.54 µM)
- IC50 (T98G): > 40 µg/mL
- IC50 (PC3): > 40 µg/mL
- IC50 (U251; Homo sapiens, U-251, 72 h, read-out: IC50 against U251): > 40 µg/mL
- Cell viability in U251 (%) (U251; primary viability screening, 72 hours, MTS, test concentration not stated): 54%
- IC50 (HEC18): > 40 µg/mL
- IC50 (MKN28): > 40 µg/mL
- IC50 (MHCC97H-CSC): 5.32 µg/mL (≈ 16.9 µM)
- colony formation of U251 [1]: significantly inhibited
